We go through 11 molecules from ChEMBL document CHEMBL1201862, “PubChem BioAssay data set” (2004).

The structures appear in SMILES notation. Activity calls are given as the source filed them. Some results are limits rather than exact numbers.

Broadly, the IC50 is the midpoint of a concentration-inhibition curve. A word on the AC50: it is the concentration giving half of the maximal activity seen. For orientation: EC50 means the midpoint of the concentration-response curve.

Test [1] in a line: viability of uninfected HEp-2 cells – cell-based, HTS, cytotoxicity control for RSV inhibitor project, dose response (AID 2410). The conditions noted are these: human respiratory syncytial virus. The format is functional.
Test [2] is described as follows: cells.
Test [3] deals with Vero. Nature of the test: cells. The conditions noted are these: Chlorocebus sabaeus. The format is functional, cell-based.
Test [4] can be described thus: HEK-293T viability loss after treatment – luminescence, T-cell screen hits, cytotoxicity control for TCR NF-kB inhibitor project, dose response (AID 489026).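 Further: cells exposed to compound about 14 hours before the viability readout.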 Format: functional, cell-based.
Test [5] concerns the target Heat shock protein HSP 90-alpha (Homo sapiens, UniProt P07900). Format: functional, organism-based.
The test system of test [6] is Vero. Nature of the test: cells. To be noted: Chlorocebus sabaeus. The format is functional.
The target in test [7] is T1, Sentrin-specific protease 6 (Homo sapiens, UniProt Q9GZR1).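 Further: Luminescence-based dose-response confirmatory assay of SENP6 inhibition, following up an ultra-high-throughput screen.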
T1 sequence (Q9GZR1 whole entry): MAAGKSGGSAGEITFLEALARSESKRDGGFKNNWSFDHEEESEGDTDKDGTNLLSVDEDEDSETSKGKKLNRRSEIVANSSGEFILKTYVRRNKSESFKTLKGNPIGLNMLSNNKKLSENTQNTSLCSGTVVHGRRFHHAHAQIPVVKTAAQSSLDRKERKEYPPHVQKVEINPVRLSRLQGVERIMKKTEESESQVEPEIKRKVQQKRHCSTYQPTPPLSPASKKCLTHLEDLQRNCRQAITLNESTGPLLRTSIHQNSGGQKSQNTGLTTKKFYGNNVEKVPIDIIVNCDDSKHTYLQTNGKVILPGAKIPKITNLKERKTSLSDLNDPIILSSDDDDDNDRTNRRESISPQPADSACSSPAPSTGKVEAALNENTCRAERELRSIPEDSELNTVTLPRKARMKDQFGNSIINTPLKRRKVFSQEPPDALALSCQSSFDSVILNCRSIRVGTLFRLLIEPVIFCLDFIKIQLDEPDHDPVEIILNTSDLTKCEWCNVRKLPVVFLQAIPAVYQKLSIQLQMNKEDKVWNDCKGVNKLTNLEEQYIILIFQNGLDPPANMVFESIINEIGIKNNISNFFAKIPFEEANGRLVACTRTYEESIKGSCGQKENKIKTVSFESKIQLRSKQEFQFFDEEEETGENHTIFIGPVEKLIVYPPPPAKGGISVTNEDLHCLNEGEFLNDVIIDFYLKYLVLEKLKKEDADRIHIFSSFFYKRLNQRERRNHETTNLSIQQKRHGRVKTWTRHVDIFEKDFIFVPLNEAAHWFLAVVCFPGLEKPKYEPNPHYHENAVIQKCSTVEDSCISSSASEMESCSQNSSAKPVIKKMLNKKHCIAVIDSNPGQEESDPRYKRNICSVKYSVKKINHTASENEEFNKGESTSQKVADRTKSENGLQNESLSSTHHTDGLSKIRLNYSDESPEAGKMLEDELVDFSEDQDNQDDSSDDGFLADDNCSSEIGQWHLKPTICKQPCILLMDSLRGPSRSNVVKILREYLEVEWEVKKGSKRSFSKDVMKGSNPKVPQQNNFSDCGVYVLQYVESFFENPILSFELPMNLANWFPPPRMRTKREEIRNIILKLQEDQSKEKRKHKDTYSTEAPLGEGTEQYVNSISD
The format is functional.

Test [8] addresses T2, Sentrin-specific protease 8 (Homo sapiens, UniProt Q96LD8).
T2 sequence (Q96LD8 whole entry): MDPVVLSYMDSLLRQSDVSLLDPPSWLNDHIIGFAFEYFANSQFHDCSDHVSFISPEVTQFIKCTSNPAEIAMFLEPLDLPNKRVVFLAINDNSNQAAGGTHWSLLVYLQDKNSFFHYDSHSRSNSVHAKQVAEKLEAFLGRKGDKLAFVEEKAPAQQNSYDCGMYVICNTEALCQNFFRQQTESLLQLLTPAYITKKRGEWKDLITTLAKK
The format is functional.

A further test addresses T3, Caspase-3 (Homo sapiens, UniProt P42574).
T3 sequence (P42574 whole entry): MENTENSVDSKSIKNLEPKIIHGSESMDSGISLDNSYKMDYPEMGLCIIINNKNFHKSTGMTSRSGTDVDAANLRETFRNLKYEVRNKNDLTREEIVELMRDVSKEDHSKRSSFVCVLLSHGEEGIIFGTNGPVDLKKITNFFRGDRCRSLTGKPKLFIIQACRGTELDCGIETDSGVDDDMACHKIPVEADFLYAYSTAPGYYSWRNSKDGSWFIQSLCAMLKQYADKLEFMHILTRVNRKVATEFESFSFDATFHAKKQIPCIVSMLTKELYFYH
Format: functional.

Test [9] concerns the target T4, Sentrin-specific protease 7 (Homo sapiens, UniProt Q9BQF6).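 Further: Luminescence-based dose-response confirmation of ultra-high-throughput screening hits, measuring inhibition of SENP7.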
T4 sequence (Q9BQF6 whole entry): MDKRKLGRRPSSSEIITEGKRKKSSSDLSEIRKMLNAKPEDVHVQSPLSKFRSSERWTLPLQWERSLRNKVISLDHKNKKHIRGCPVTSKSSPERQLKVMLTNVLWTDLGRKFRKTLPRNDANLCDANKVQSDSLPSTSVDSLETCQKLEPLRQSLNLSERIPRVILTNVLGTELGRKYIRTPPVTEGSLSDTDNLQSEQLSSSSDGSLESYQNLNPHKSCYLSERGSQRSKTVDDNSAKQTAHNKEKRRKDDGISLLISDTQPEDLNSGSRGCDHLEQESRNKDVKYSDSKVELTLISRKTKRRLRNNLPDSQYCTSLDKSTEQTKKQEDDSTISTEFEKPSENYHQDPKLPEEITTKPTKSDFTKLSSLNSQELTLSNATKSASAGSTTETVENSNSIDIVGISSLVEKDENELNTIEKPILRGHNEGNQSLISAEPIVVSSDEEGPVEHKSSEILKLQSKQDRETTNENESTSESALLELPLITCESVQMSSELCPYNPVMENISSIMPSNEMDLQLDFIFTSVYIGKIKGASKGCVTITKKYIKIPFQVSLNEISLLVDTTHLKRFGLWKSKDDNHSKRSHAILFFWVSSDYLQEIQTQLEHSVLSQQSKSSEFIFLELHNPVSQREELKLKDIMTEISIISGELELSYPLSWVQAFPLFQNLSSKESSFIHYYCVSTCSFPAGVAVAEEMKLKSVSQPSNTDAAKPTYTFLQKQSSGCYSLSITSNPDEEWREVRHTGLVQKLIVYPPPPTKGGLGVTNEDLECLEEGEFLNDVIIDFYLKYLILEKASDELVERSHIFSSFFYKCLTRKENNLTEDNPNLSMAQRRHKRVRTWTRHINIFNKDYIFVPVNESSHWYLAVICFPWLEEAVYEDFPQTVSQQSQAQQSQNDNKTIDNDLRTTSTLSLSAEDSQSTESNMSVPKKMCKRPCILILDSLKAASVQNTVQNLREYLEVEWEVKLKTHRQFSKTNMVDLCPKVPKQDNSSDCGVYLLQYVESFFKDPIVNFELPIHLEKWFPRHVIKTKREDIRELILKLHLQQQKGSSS
The format is functional.

Test [10] can be described thus: THP-1 cell cytotoxicity, dose response, cytotoxicity control for non-replicating M. tuberculosis project (AID 489025). Format: functional.
Another test deals with INS1. Nature of the test: INS-1E survival protection against cytokine death – cell-based, luminescence, retest, dose response (AID 449756).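 Further: cell death triggered by IL-1 beta plus TNF-alpha plus IFN-gamma mixture; protective hits raise ATP signal compared with cytokine alone wells.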 Format: functional. The conditions noted are these: Rattus norvegicus.
A short description of test [11]: Luminescence Cell-Based Dose Retest to Confirm Inhibitors of Cancer Stem Cells. [Related pubchem assays (depositor defined):AID2717, AID2721]. The format is functional. To be noted: Homo sapiens.
Test [12] can be described thus: Vero E6 cell cytotoxicity, dose response, cytotoxicity control for non-replicating M. tuberculosis project, secondary assay (AID 492998). The format is functional, VeroE6. The conditions noted are these: Vero C1008.
Test [13] in a line: cells. The format is functional.
Test [14] relates to Streptococcus sp. 'group A'. Nature of the test: Streptococcus pyogenes SK(-)GAS viability under kanamycin – luminescence, BacTiterGlo, confirmation, counter-screen for streptokinase expression inhibitor project, dose response (AID 1900). Format: functional, organism-based. On the technique in general: A counterscreen serves to expose hits that act by an unwanted route or on another target.

The test system of the next test is Streptococcus. Description: GAS UMAA2166 growth inhibition – luminescence, BacTiterGlo, counter-screen for streptokinase expression inhibitor project, dose response (AID 1915).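 Further: potency for reduction of bacterial viability or growth.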 The format is functional, organism-based.
Test [15] can be described thus: microbe, parasite or virus in culture. The format is functional. The conditions noted are these: Mycobacterium tuberculosis.

Turning to `COc1ccccc1C1CCCN1Cc1nc(-c2ccc(C)s2)oc1C` (configuration not stated), the CC50 in [1] is 20.2 µM (active). Moreover, the values for the IC50 in the test “cells [2]” and in the test with Vero [3] were 33.3 µM (active) and 10.9 µM (active), respectively.
`O=S(=O)(Nc1ccc(F)cc1Cl)c1ccc(-c2cnc(C3CC3)o2)cc1`: the IC50 in test [4] is > 80 µM (inactive).
Regarding `Cc1cccc(NC(S)=NCC23C=CC(O2)C2C(=O)N(c4ccc(Cl)cc4)C(=O)C23)c1` (configuration not stated), the concentration at half-maximal activity (AC50) in test [5] was 15 µM (active).
`O=C(CCN1C(=O)/C(=C/c2ccc(F)cc2)SC1=S)NCCc1ccc(O)cc1`: in the test on Vero [6], the CC50 was 24.1 µM (active). For the same molecule, the IC50 in the test with Vero [3] was > 25 µM (active).
On to `O=C(Nc1ccn(Cc2ccccc2F)n1)c1ccc(COc2ccc(Br)cc2)cc1`, for which the IC50 in test [4] was > 80 µM (inactive).
Take `O=C1C=C(Nc2ccc(F)cc2)c2ccccc2C1=O`: the 50% inhibitory concentration (IC50) in test [7] is 2.94 µM (active); in [8], 4.81 µM (active); on Caspase-3, 13.9 µM (active); in test [9], 9.46 µM (active); in the test “cells [13]” it was 4.25 µM (active). Besides, the figures for the CC50 in [10] and in test [12] were 19 µM (active) and 9.15 µM (active), respectively. Also, the AC50 in the test on INS1 was 3.06 µM (active); in test [11], 3.19 µM (active).
Regarding `OC(Cn1cncn1)(c1ccc(F)cc1)c1ccc(Cl)cc1` (configuration not stated), the half-maximal activity concentration (AC50) in test [5] was < 0.195 µM (active).
Turning to `CC(C)c1ccc(OCC(=O)NNC(=S)NC(=O)c2ccco2)c(Br)c1`, the EC50 is < 0.06 µM (active) in test [14] and 0.141 µM (active) in the test on Streptococcus. Also, in the test with Vero [6], the CC50 is > 25 µM (active). For the same molecule, the concentration for half-maximal inhibition (IC50) with Vero [3] is > 25 µM (active).
Take `Cc1cc(/C=C/c2ccc3cc(N(C)C)ccc3[n+]2C)c(C)n1-c1ccccc1`: the half-maximal activity concentration (AC50) in [5] is 5.91 µM (active). Further, the CC50 in [15] was 2.28 µM (active).
For `CCCc1c(NC(=O)Nc2ccc(Cl)cc2Cl)cnn1-c1ccccc1`, the CC50 in the test on Vero [6] is > 25 µM (active). Moreover, the IC50 in the test on Vero [3] was 17.9 µM (active).
`CCCCCCCCCC(=O)N[C@@H]1c2cc(OC)c(OC)cc2C[C@H]1OCc1ccccc1`: the IC50 with Vero [3] was > 25 µM (active).
